Results published in patent US9062284B2, “Uses and detection of herbicide resistance genes for resistance to aryloxyalkanoate herbicides” (Dow ArgoSciences LLC, priority 2007, dated 2015).

How the values were obtained:
[1] = tested on: AAD-13 (v1) transformed T1 Arabidopsis; experiment: Postemergence herbicide response of AAD-13 (v1) T1 Arabidopsis; format: in vivo, Arabidopsis thaliana; settings: 14 DAT
Protocol: Seven days after planting (DAP) and again 11 DAP, T1 plants (cotyledon and 2-4-lf stage, respectively) were sprayed with a 0.2% solution of Liberty herbicide (200 g ai/L glufosinate, Bayer Crop Sciences, Kansas City, Mo.) at a spray volume of 10 ml/tray (703 L/ha) using a DeVilbiss compressed air spray tip to deliver an effective rate of 280 g ai/ha glufosinate per application. Survivors (plants actively growing) were identified 4-7 days after the final spraying and transplanted individually into 3-inch pots prepared with potting media (Metro Mix 360). Transplanted plants were covered with humidity domes for 3-4 days and placed in a 22° C. growth chamber as before or moved to directly to the greenhouse. Domes were subsequently removed and plants reared in the greenhouse (22±5° C., 50±30% RH, 14 h light:10 dark, minimum 500 μE/m^2s^1 natural+supplemental light) at least 1 day prior to testing for the ability of AAD-13 (v1) to provide phenoxy auxin herbicide resistance.
T1 plants were then randomly assigned to various rates of 2,4-D. For Arabidopsis, 50 g ae/ha 2,4-D is an effective dose to distinguish sensitive plants from ones with meaningful levels of resistance. Elevated rates were also applied to determine relative levels of resistance (280, 560, 1120, or 2240 g ae/ha). Tables 11 and 12 show comparisons drawn to an aryloxyalkanoate herbicide resistance gene (AAD-12 (v1)) previously described in PCT/US2006/042133.
All auxin herbicide applications were made using the DeVilbiss sprayer as described above to apply 703 L/ha spray volume (0.4 ml solution/3-inch pot) or applied by track sprayer in a 187 L/ha spray volume. 2,4-D used was either technical grade (Sigma, St. Louis, Mo.) dissolved in DMSO and diluted in water (<1% DMSO final concentration) or the commercial dimethylamine salt formulation (456 g ae/L, NuFarm, St Joseph, Mo.). Dichlorprop used was commercial grade formulated as potassium salt of R-dichlorprop (600 g ai/L, AH Marks). As herbicide rates increased beyond 800 g ae/ha, the pH of the spray solution became exceedingly acidic, burning the leaves of young, tender Arabidopsis plants and complicating evaluation of the primary effects of the herbicides.
The first Arabidopsis transformations were conducted using AAD-13 (v1) (plant optimized gene). T1 transformants were first selected from the background of untransformed seed using a glufosinate selection scheme. Over 160,000 T1 seed were screened and 238 glufosinate resistant plants were identified (PAT gene), equating to a transformation/selection frequency of 0.15% which lies in the normal range of selection frequency of constructs where PAT+Liberty are used for selection. T1 plants selected above were subsequently transplanted to individual pots and sprayed with various rates of commercial aryloxyalkanoate herbicides. Table 11 compares the response of AAD-13 (v1) and control genes to impart 2,4-D resistance to Arabidopsis T1 transformants. Response is presented in terms of % visual injury 2 WAT. […] An arithmetic mean and standard deviation is presented for each treatment. The range in individual response is also indicated in the last column for each rate and transformation. PAT/Cry1F-transformed Arabidopsis served as an auxin-sensitive transformed control. The AAD-13 (v1) gene imparted herbicide resistance to individual T1 Arabidopsis plants. Within a given treatment, the level of plant response varied greatly and can be attributed to the fact each plant represents an independent transformation event. Of important note, at each 2,4-D rate tested, there were individuals that were unaffected while some were severely affected. […] At high rates the spray solution becomes highly acidic unless buffered therefore some of the injury may be attributed to the acidity of the spray solution. Arabidopsis grown mostly in the growth chamber has a very thin cuticle and severe burning effects can complicate testing at these elevated rates. […]

[2] = tested on: PAT/Cry1F-transformed tobacco; experiment: 2,4-D DMA response of PAT/Cry1F transformed control T0 tobacco; format: in vivo, Nicotiana tabacum; settings: 14 days after application
Description: (§1) Following the acclimation in the greenhouse T0 plants were then randomly assigned to various rates of 2,4-D DMA ranging from 140 to 2240 g ae/ha at […] increments. For tobacco, 140 g ae/ha 2,4-D is an effective dose to distinguish sensitive plants from ones with meaningful levels of resistance.

[3] = tested on: AAD-13 (v1) gene T0 tobacco plants; experiment: 2,4-D DMA response of AAD-13 (v1) T0 tobacco; format: in vivo, Nicotiana tabacum; settings: for % Injury 20-40% (individuals) / % Injury <20% (individuals) / % Injury >40% (individuals) / % Injury Ave: 14 days after application
Description: as §1

[4] = tested on: Segregating T2 AAD-13 (v1) Arabidopsis plants (pDAB4114.01.094); experiment: Foliar pyridyloxyacetate response of segregating T2 AAD-13 (v1) Arabidopsis; format: in vivo, Arabidopsis thaliana
Protocol: The ability of AAD-13 (v1) to provide resistance to other aryloxyalkanoate auxin herbicides in transgenic Arabidopsis was determined by foliar application of various substrates. T2 generation Arabidopsis seed was stratified, and sown into selection trays much like that of Arabidopsis (Example 6.4). A transformed-control line containing PAT and the insect resistance gene Cry1F was planted in a similar manner. Seedlings were transferred to individual 3-inch pots in the greenhouse. All plants were sprayed with the use of a track sprayer set at 187 L/ha. The plants were sprayed with a range of pyridyloxyacetate herbicides: 200-800 g ae/ha triclopyr (Garlon 3A, Dow AgroSciences) and 200-800 g ae/ha fluoroxypyr (Starane, Dow AgroSciences). The 2,4-D metabolite resulting from AAD-13 activity, 2,4-dichlorophenol (DCP, Sigma) (at a molar equivalent to 280-2240 g ae/ha of 2,4-D, technical grade will also be tested. All applications were formulated in water. Each treatment was replicated 3-4 times. Plants were evaluated at 3 and 14 days after treatment.

`CNC.O=C(O)COc1ccc(Cl)cc1Cl` [2,4-D DMA] was tested, and the “% Injury 20-40% (individuals)” value ([1]; 280 g ae/ha postemergence) was 4, the “% Injury <20% (individuals)” value ([1]; 280 g ae/ha postemergence) was 12 and the “% Injury >40% (individuals)” value ([1]; 280 g ae/ha postemergence) was 4. The “% Injury Ave” value ([1]; 280 g ae/ha postemergence) was 21%, the “% Injury 20-40% (individuals)” value ([1]; 560 g ae/ha postemergence) was 2 and the “% Injury <20% (individuals)” value ([1]; 560 g ae/ha postemergence) was 17. For the same compound, the “% Injury >40% (individuals)” value ([1]; 560 g ae/ha postemergence) was 0, the “% Injury Ave” value ([1]; 560 g ae/ha postemergence) was 2% and the “% Injury 20-40% (individuals)” value ([1]; 1120 g ae/ha postemergence) was 0. The “% Injury <20% (individuals)” value ([1]; 1120 g ae/ha postemergence) was 20, the “% Injury >40% (individuals)” value ([1]; 1120 g ae/ha postemergence) was 0 and the “% Injury Ave” value ([1]; 1120 g ae/ha postemergence) was 2%. For the same compound, the “% Injury 20-40% (individuals)” value ([1]; 2240 g ae/ha postemergence) was 3, the “% Injury <20% (individuals)” value ([1]; 2240 g ae/ha postemergence) was 14 and the “% Injury >40% (individuals)” value ([1]; 2240 g ae/ha postemergence) was 3. The “% Injury Ave” value ([1]; 2240 g ae/ha postemergence) was 15%, the “% Injury 20-40% (individuals)” value ([2]; 140 g ae/ha) was 1 and the “% Injury <20% (individuals)” value ([2]; 140 g ae/ha) was 0. The “% Injury >40% (individuals)” value ([2]; 140 g ae/ha) was 2, the “% Injury Ave” value ([2]; 140 g ae/ha) was 47.0% and the “% Injury 20-40% (individuals)” value ([2]; 560 g ae/ha) was 0. For the same compound, the “% Injury <20% (individuals)” value ([2]; 560 g ae/ha) was 0, the “% Injury >40% (individuals)” value ([2]; 560 g ae/ha) was 3 and the “% Injury Ave” value ([2]; 560 g ae/ha) was 75.0%. The “% Injury 20-40% (individuals)” value ([2]; 2240 g ae/ha) was 0, the “% Injury <20% (individuals)” value ([2]; 2240 g ae/ha) was 0 and the “% Injury >40% (individuals)” value ([2]; 2240 g ae/ha) was 3. The “% Injury Ave” value ([2]; 2240 g ae/ha) was 97.0%, the “% Injury 20-40% (individuals)” value ([3]; 140 g ae/ha) was 0 and the “% Injury <20% (individuals)” value ([3]; 140 g ae/ha) was 2. The “% Injury >40% (individuals)” value ([3]; 140 g ae/ha) was 0, the “% Injury Ave” value ([3]; 140 g ae/ha) was 8.0% and the “% Injury 20-40% (individuals)” value ([3]; 560 g ae/ha) was 0. The “% Injury <20% (individuals)” value ([3]; 560 g ae/ha) was 2, the “% Injury >40% (individuals)” value ([3]; 560 g ae/ha) was 0 and the “% Injury Ave” value ([3]; 560 g ae/ha) was 3.0%. For the same compound, the “% Injury 20-40% (individuals)” value ([3]; 2240 g ae/ha) was 0, the “% Injury <20% (individuals)” value ([3]; 2240 g ae/ha) was 2 and the “% Injury >40% (individuals)” value ([3]; 2240 g ae/ha) was 0. For the same compound, the “% Injury Ave” value ([3]; 2240 g ae/ha) was 5.0% and the “rate to which robust tolerance is provided” value ([3]; T0 tobacco) was “at least 2240 g ae/ha”.

`C[C@@H](Oc1ccc(Cl)cc1Cl)C(=O)O` [R-dichloroprop, R-dichlorprop] was tested, and the “% Injury 20-40% (individuals)” value ([1]; 800 g ae/ha postemergence) was 0, the “% Injury <20% (individuals)” value ([1]; 800 g ae/ha postemergence) was 0 and the “% Injury >40% (individuals)” value ([1]; 800 g ae/ha postemergence) was 20. The “% Injury Ave” value ([1]; 800 g ae/ha postemergence) was 100%.

In the case of `Nc1c(Cl)c(F)nc(OCC(=O)O)c1Cl` [fluoroxypyr], the “Ave. % Injury 14DAT” value ([4]; 200 g ae/ha foliar-applied) was 10%, the “Ave. % Injury 14DAT” value ([4]; 400 g ae/ha foliar-applied) was 16% and the “Ave. % Injury 14DAT” value ([4]; 800 g ae/ha foliar-applied) was 55%. For the same compound, the “rate up to which robust resistance is provided” value ([4]; foliar application) was “up to 400 g ae/ha”.

`O=C(O)COc1nc(Cl)c(Cl)cc1Cl` [triclopyr] was tested, and the “Ave. % Injury 14DAT” value ([4]; 200 g ae/ha foliar-applied) was 75%, the “Ave. % Injury 14DAT” value ([4]; 400 g ae/ha foliar-applied) was 90% and the “Ave. % Injury 14DAT” value ([4]; 800 g ae/ha foliar-applied) was 100%.
